From patent US20230257396A1, “MACROCYCLES AND THEIR USE” (BLOSSOMHILL THERAPEUTICS, INC., priority 2020, published 2023)

Assays:
Experiment in all cases: KINOMEscan kinase binding assay (Eurofins/DiscoveRx), % Ctrl
kinases [1] = molecular target: T1, kinases (Homo sapiens, UniProt P17948); conditions: 1 μM; FLT1
T1 construct: purchased Eurofins/DiscoveRx; host or cells: E. coli BL21-derived host (T7 phage display) for most kinases; HEK-293 for the rest
Description: (§1) Kinase binding assays were performed at Eurofins/DiscoveRx using the general KINOMEscan Protocol (Fabian, M. A. et al., “A small molecule-kinase interaction map for clinical kinase inhibitors,” Nat. Biotechnol. 2005, 23(3):329-36). For most assays, kinase-tagged T7 phage strains were prepared in an E. coli host derived from the BL21 strain. E. coli were grown to log-phase and infected with T7 phage and incubated with shaking at 32° C. until lysis. The lysates were centrifuged and filtered to remove cell debris. The remaining kinases were produced in HEK-293 cells and subsequently tagged with DNA for qPCR detection. Streptavidin-coated magnetic beads were treated with biotinylated small molecule ligands for 30 minutes at room temperature to generate affinity resins for kinase assays. The liganded beads were blocked with excess biotin and washed with blocking buffer (SeaBlock (Pierce), 1% BSA, 0.05% Tween 20, 1 mM DTT) to remove unbound ligand and to reduce nonspecific binding. Binding reactions were assembled by combining kinases, liganded affinity beads, and test compounds in 1×binding buffer (20% SeaBlock, 0.17×PBS, 0.05% Tween 20, 6 mM DTT). All reactions were performed in polystyrene 96-well plates in a final volume of 0.135 mL. The assay plates were incubated at room temperature with shaking for 1 hour and the affinity beads were washed with washbuffer (1×PBS, 0.05% Tween 20). The beads were then re-suspended in elution buffer (1× PBS, 0.05% Tween 20, 0.5 μM non-biotinylated affinity ligand) and incubated at room temperature with shaking for 30 minutes. The kinase concentration in the eluates was measured by qPCR. Results for compounds tested in this assay at a given concentration are reported as “% Ctrl”, where lower numbers indicate stronger binding in the matrix.
(§2) (test compound signal-positive control signal)/(negative control signal-positive control signal) X100

kinases [2] = molecular target: T2, kinases (Homo sapiens, UniProt P07949, V804M); conditions: 1 μM; RET(V804M)
T2 construct: purchased Eurofins/DiscoveRx; host or cells: E. coli BL21-derived host (T7 phage display) for most kinases; HEK-293 for the rest
T2 sequence (P07949 29-1114 V804M): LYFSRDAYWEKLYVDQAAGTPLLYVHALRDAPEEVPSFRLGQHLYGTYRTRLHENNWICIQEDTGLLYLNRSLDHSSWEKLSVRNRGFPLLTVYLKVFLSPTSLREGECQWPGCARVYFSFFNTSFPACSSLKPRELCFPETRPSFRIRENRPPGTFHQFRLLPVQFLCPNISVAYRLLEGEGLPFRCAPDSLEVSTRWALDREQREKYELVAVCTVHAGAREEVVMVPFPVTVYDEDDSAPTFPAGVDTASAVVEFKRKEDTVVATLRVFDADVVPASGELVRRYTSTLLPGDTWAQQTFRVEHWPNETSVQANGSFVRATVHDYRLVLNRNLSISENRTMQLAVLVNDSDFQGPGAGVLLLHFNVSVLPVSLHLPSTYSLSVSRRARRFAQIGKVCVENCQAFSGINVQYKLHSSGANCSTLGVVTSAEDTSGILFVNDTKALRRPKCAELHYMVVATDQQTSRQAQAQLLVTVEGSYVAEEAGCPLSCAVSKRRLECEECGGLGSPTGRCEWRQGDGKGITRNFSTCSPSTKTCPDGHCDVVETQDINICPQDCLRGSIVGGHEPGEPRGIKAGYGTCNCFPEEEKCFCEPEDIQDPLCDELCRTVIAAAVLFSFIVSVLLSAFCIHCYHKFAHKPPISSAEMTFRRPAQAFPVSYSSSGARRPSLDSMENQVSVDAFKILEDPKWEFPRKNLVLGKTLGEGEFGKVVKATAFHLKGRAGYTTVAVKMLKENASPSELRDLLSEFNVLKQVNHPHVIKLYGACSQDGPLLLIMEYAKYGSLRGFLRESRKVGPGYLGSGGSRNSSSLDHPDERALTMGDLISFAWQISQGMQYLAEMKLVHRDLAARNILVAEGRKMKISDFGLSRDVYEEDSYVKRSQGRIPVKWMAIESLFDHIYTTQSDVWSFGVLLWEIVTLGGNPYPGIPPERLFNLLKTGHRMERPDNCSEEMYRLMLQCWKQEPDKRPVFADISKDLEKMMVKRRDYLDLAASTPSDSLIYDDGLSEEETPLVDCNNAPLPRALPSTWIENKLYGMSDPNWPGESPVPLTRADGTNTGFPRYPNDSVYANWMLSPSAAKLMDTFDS
Description: as §1, §2

kinases [3] = molecular target: T3, kinases (Homo sapiens, UniProt P36888, D835Y); conditions: 1 μM; FLT3(D835Y)
T3 construct: purchased Eurofins/DiscoveRx; host or cells: E. coli BL21-derived host (T7 phage display) for most kinases; HEK-293 for the rest
T3 sequence (P36888 27-993 D835Y): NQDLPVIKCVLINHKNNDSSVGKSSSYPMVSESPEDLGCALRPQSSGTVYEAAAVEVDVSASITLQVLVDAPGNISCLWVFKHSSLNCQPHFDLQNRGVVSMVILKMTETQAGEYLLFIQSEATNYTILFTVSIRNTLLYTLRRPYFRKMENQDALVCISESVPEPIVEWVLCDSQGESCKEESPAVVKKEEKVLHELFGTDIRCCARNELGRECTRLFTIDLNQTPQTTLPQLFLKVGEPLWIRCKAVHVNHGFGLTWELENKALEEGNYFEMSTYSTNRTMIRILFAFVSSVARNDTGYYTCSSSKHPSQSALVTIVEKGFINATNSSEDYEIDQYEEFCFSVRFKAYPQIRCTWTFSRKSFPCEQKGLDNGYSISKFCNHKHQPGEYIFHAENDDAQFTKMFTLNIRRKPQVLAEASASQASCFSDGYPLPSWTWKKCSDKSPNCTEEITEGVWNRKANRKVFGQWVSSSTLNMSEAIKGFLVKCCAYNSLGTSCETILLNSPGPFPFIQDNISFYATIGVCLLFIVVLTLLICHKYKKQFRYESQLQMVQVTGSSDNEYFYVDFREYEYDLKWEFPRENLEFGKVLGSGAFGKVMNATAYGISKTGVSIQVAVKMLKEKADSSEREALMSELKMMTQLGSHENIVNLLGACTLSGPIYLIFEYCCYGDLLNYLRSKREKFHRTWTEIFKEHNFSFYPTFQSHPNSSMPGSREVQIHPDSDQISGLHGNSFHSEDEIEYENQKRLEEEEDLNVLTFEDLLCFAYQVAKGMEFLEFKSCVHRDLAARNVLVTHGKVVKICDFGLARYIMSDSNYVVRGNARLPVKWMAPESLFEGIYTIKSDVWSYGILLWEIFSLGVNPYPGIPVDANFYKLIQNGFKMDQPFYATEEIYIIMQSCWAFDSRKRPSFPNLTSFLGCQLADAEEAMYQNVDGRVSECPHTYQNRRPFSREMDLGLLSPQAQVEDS
Description: as §1, §2

kinases [4] = molecular target: T4, kinases (Homo sapiens, UniProt P35916); conditions: 1 μM; FLT4
T4 construct: purchased Eurofins/DiscoveRx; host or cells: E. coli BL21-derived host (T7 phage display) for most kinases; HEK-293 for the rest
T4 sequence (P35916 25-1363): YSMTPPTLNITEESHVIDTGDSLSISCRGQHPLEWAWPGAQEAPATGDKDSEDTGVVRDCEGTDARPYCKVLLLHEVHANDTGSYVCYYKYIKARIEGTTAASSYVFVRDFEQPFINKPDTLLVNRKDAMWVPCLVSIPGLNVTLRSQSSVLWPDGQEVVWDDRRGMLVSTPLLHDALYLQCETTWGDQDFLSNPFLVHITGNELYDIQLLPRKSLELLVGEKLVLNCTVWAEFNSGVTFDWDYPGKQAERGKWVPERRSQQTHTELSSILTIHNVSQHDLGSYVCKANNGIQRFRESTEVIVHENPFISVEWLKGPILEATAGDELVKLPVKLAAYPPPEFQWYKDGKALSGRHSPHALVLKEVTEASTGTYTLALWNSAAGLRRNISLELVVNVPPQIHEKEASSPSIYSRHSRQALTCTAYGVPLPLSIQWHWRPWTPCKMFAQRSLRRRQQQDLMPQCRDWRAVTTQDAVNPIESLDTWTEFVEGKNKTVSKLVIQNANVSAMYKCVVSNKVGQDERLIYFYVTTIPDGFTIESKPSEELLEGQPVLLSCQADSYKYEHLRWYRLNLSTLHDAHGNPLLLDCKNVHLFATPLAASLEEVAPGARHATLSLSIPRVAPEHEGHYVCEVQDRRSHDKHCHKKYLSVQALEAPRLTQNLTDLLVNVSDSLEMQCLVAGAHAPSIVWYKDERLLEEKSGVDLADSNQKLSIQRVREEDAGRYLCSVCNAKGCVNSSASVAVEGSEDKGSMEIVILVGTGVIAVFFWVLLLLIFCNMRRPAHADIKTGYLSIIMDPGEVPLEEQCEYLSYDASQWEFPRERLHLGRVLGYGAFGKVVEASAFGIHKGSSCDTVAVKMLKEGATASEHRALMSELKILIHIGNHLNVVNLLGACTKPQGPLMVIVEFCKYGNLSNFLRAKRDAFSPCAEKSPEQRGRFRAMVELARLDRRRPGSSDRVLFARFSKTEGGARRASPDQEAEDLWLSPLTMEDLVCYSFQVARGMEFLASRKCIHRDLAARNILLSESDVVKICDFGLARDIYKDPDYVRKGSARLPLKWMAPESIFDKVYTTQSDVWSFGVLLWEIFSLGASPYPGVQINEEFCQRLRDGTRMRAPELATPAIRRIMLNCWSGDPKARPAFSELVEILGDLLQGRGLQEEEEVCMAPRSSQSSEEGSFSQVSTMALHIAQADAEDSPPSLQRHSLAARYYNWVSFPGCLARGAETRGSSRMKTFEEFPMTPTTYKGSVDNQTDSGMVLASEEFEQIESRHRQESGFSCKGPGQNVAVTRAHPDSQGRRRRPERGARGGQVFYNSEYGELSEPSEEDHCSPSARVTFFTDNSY
Description: as §1, §2

kinases [5] = molecular target: T5, kinases (Homo sapiens, UniProt P10721, L576P); conditions: 1 μM; KIT(L576P)
T5 construct: purchased Eurofins/DiscoveRx; host or cells: E. coli BL21-derived host (T7 phage display) for most kinases; HEK-293 for the rest
T5 sequence (P10721 26-976 L576P): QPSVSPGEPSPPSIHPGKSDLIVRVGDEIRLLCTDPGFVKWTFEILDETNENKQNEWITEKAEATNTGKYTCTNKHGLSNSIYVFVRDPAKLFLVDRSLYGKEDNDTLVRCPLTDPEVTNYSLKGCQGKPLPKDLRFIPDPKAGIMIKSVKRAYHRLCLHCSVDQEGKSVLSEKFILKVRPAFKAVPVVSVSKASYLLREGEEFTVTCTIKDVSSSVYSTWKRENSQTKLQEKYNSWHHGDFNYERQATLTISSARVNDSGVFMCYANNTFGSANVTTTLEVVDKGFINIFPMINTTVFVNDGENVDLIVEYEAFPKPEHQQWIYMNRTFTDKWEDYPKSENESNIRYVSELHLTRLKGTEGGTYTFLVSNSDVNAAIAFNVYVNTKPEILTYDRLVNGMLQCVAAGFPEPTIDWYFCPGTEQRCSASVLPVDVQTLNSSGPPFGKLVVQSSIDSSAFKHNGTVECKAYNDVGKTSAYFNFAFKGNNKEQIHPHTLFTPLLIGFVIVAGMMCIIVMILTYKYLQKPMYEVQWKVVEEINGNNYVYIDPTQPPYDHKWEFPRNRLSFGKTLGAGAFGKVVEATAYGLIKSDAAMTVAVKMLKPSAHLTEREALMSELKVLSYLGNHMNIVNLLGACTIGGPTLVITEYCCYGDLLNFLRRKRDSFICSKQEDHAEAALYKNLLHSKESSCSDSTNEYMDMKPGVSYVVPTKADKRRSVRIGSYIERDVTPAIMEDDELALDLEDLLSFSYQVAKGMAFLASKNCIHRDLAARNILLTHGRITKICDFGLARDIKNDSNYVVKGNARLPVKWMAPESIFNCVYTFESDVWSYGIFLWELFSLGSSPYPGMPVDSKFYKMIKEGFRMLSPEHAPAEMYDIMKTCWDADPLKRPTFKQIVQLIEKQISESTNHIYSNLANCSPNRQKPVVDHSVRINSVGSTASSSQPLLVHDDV
Description: as §1, §2

kinases [6] = molecular target: T6, kinases (Homo sapiens, UniProt P10721, T670I/V559D); conditions: 1 μM; KIT(V559D, T670I)
T6 construct: purchased Eurofins/DiscoveRx; host or cells: E. coli BL21-derived host (T7 phage display) for most kinases; HEK-293 for the rest
T6 sequence (P10721 26-976 V559D/T670I): as the sequence (P10721 26-976 L576P) above, with V534D, P551L, T645I counted along it
Description: as §1, §2

kinases [7] = molecular target: T7, kinases (Homo sapiens, UniProt P00533, L858R/T790M); conditions: 1 μM; EGFR(L858R, T790M)
T7 construct: purchased Eurofins/DiscoveRx; host or cells: E. coli BL21-derived host (T7 phage display) for most kinases; HEK-293 for the rest
Description: as §1, §2

kinases [8] = molecular target: T8, kinases (Homo sapiens, UniProt P00519, M351T); conditions: 1 μM; ABL1(M351T)-phosphorylated
T8 construct: purchased Eurofins/DiscoveRx; host or cells: E. coli BL21-derived host (T7 phage display) for most kinases; HEK-293 for the rest
Description: as §1, §2

T1 sequence (P17948 27-1338): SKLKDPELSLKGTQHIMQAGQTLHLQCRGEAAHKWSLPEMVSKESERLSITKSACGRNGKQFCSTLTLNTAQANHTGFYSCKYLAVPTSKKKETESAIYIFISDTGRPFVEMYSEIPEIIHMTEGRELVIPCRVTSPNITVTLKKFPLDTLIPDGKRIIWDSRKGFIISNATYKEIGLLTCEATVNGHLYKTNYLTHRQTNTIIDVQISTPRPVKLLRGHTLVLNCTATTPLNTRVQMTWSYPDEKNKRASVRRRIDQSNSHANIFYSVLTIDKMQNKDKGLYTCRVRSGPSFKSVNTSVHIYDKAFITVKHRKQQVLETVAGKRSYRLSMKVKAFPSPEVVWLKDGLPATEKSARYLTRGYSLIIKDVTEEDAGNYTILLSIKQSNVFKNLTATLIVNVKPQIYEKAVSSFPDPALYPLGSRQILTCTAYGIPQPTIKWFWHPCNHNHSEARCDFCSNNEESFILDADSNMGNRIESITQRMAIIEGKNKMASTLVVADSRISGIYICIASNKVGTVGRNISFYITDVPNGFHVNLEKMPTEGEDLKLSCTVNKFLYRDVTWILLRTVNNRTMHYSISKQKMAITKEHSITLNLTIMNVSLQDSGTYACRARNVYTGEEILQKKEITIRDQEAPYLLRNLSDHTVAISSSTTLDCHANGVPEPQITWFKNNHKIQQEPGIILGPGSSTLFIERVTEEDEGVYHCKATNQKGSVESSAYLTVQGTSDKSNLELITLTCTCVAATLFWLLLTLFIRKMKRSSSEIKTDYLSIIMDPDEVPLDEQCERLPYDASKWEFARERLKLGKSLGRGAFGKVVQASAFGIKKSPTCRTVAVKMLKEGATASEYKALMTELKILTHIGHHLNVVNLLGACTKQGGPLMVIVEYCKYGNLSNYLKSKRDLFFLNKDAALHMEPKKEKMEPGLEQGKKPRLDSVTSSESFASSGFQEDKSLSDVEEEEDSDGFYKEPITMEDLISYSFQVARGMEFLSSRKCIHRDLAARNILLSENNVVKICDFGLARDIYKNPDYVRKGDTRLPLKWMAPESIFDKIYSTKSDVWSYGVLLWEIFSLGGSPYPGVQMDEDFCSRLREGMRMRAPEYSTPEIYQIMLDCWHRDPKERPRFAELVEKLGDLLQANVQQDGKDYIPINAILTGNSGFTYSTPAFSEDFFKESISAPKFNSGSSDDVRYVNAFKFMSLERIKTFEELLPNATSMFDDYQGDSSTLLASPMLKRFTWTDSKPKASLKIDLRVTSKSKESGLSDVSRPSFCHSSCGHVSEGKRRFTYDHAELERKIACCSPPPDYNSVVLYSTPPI

Compound | % Ctrl, FLT1 (kinases [1]) [% Ctrl] | % Ctrl, RET(V804M) (kinases [2]) [% Ctrl] | % Ctrl, FLT3(D835Y) (kinases [3]) [% Ctrl] | % Ctrl, FLT4 (kinases [4]) [% Ctrl] | % Ctrl, KIT(L576P) (kinases [5]) [% Ctrl] | % Ctrl, KIT(V559D, T670I) (kinases [6]) [% Ctrl] | % Ctrl, EGFR(L858R, T790M) (kinases [7]) [% Ctrl] | % Ctrl, ABL1(M351T)-phosphorylated (kinases [8]) [% Ctrl]
Cc1cc2c([nH]1)/C=C1\C(=O)Nc3ccc(nc31)-c1ccccc1OCCCNC2=O [Ex.22, [3a(4)Z]-6-methyl-9,10,11,12-tetrahydro-1,18-(ethanediylidene)dipyrrolo[3,2-g:3′,4′-j][1,5,12]benzoxadiazacyclopentadecine-3,8(2H,5H)-dione] | 100 | 93 | 93 | 92 | 84 | 100 | 97 | 100
Cc1cc2c([nH]1)/C=C1\C(=O)Nc3ccc(cc31)-c1ccnn1CCOCCNC2=O [Ex.39, [19a(20)Z]-2-methyl-6,7,9,10-tetrahydro-1H-15,17-(ethanediylidene)pyrazolo[1,5-d]dipyrrolo[3,4-h:2′,3′-k][1,4,14]oxadiazacyclohexadecine-4,19(5H,18H)-dione] | 95 | 94 | 96 | 98 | 100 | 85 | 90 | 58
Cc1cc2c([nH]1)/C=C1\C(=O)Nc3cnc(nc31)N(C)CCCOCCN(C)C2=O [Ex.71, [17a(18)Z]-2,5,12-trimethyl-6,7,9,10,11,12-hexahydro-1H-13,15-(azenometheno)dipyrrolo[3,2-f:3′,4′-i][1,4,11,13]oxatriazacyclohexadecine-4,17(5H,16H)-dione] | 98 | 89 | 94 | 95 | 100 | 100 | 100 | 100

More lines, now with the values ahead:

% Ctrl, FLT1 (kinases [1]) [% Ctrl] | % Ctrl, RET(V804M) (kinases [2]) [% Ctrl] | % Ctrl, FLT3(D835Y) (kinases [3]) [% Ctrl] | % Ctrl, FLT4 (kinases [4]) [% Ctrl] | % Ctrl, KIT(L576P) (kinases [5]) [% Ctrl] | % Ctrl, KIT(V559D, T670I) (kinases [6]) [% Ctrl] | % Ctrl, EGFR(L858R, T790M) (kinases [7]) [% Ctrl] | % Ctrl, ABL1(M351T)-phosphorylated (kinases [8]) [% Ctrl] | Compound
83 | 4 | 0.25 | 9.9 | 14 | 34 | 58 | 8.5 | Cc1cc2c([nH]1)/C=C1\C(=O)Nc3ccc(cc31)OCCOCCN(C)C2=O [Ex.91, [16a(17)Z]-2,5-dimethyl-6,7,9,10-tetrahydro-1H-12,14-(ethanediylidene)dipyrrolo[3,2-i:3′,4′-l][1,4,7]dioxazacyclopentadecine-4,16(5H,15H)-dione]
46 | 51 | 9.1 | 74 | 98 | 96 | 97 | 98 | Cc1cc2c([nH]1)/C=C1\C(=O)Nc3ccc(cc31)CN(C)C(=O)COCCNC2=O [Ex.111, [17a(18)Z]-2,11-dimethyl-6,7,11,12-tetrahydro-1H-13,15-(ethanediylidene)dipyrrolo[3,2-f:3′,4′-i][1,4,14]oxadiazacyclohexadecine-4,10,17(5H,9H,16H)-trione]
96 | 99 | 72 | 94 | 97 | 97 | 92 | 100 | Cc1cc2c([nH]1)/C=C1\C(=O)Nc3cnc(cc31)-c1cnn(C)c1COCCNC2=O [Ex.123, [3a(4)Z]-6,14-dimethyl-10,11,13,14-tetrahydro-2H-17,1-(azenometheno)pyrazolo[4,3-m]dipyrrolo[3,2-f:3′,4′-i][1,4]oxazacyclopentadecine-3,8(5H,9H)-dione]
81 | 19 | 8.8 | 62 | 40 | 30 | 17 | 53 | Cc1cc2c([nH]1)/C=C1\C(=O)Nc3ccc(cc31)-c1ccnn1CCOCCN(C)C2=O [Ex. 41, [19a(20)Z]-2,5-dimethyl-6,7,9,10-tetrahydro-1H-15,17-(ethanediylidene)pyrazolo[1,5-d]dipyrrolo[3,4-h:2′,3′-k][1,4,14]oxadiazacyclohexadecine-4,19(5H,18H)-dione]
96 | 97 | 86 | 91 | 100 | 92 | 98 | 78 | Cc1cc2c([nH]1)/C=C1\C(=O)Nc3ccc(cc31)-c1ccnn1CCNCCNC2=O [Ex. 43, [19a(20)Z]-2-methyl-5,6,7,8,9,10-hexahydro-15,17-(ethanediylidene)pyrazolo[1,5-g]dipyrrolo[3,4-k:2′,3′-n][1,4,7]triazacyclohexadecine-4,19(1H,18H)-dione]
